Our source for the inhibition and IC50 values is patent publication US20240174637A1, “DEGRADERS OF GRK2 AND USES THEREOF” (Sonata Therapeutics, Inc., priority 2021, published 2024).

Common to all, as to type: cell-based
One assay deals with T1, GRK2 (Homo sapiens, UniProt P25098).
T1 sequence (P25098 1-689): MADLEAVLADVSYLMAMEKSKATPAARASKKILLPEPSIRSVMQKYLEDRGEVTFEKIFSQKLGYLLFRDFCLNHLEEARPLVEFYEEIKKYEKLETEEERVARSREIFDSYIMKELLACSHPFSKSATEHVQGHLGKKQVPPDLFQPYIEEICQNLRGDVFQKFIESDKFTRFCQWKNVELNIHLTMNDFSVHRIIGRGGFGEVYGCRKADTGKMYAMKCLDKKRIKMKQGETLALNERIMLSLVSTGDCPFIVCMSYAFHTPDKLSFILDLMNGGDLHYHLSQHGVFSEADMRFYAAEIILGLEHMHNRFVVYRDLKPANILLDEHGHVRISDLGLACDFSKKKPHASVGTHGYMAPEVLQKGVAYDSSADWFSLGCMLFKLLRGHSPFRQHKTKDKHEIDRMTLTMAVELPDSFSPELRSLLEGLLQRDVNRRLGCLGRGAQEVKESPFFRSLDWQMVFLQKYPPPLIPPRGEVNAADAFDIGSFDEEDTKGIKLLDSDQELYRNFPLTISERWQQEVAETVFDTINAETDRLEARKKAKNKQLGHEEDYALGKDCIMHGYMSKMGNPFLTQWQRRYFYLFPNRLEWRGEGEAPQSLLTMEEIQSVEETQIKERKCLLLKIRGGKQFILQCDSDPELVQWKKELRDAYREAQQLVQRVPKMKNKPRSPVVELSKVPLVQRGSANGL
In words: GRK2 Degradation Assay and Western Blot in PAXF1657 cells. More on the design: endogenous in cells; host or cells: PAXF1657. The settings on record: for inhibition at 0.3 µM: Conc 0.3 uM. The protocol:
General Protocol: Degradation Assay and Western Blot. PAXF1657 cells were plated in 6-well, 24-well plates or 60 mm tissue culture treated dishes and incubated at 37° C. until 70% confluency. The media was aspirated, and the cells were treated with fresh media containing the compounds in the concentration range of 0 μM to 10 μM for a period of 6 to 24 hours. At the desired time points the cells were washed twice with cold PBS and lysed with lysis buffer (ice cold PBS+1% NP40 with 1/100 protease/phosphatase inhibitors) on ice for 8 mins followed by sonication at 70% intensity pulses for 10 seconds. The cells were centrifuged at 20000 g for 8 min at 4° C. The supernatants were collected and stored at −80° C.
Samples were mixed with NuPAGE LDS sample buffer and NuPAGE sample reducing buffer (3×), vortexed and heated at 95° C. for 10 min, and then analyzed by SDS-PAGE (NuPAGE 4-12%) followed by transfer to nitrocellulose membrane. […] The membranes were washed three times with TBST and incubated with GRK2 or R-actin antibodies in 5% milk in TBST at 4° C. overnight. The membranes were washed three times with TBST and incubated with anti-mouse IgG-HRP or anti-rabbit IgG-HRP at room temperature for 2 hours in 5% milk in TBST. The membranes were washed three times with TBST and developed with ECL Dura, ECL femto or ECL atto substrates.

The next assay has as its system PAXF1657 EV. In words: 7-day cellular proliferation assay (CellTiter-Glo), PAXF1657 EV. The protocol: (§1) In order to identify compounds specific for GRK2, we generated two isogenic cell line pairs of the pancreatic cancer cell line PAXF1657, a pair of cells stably overexpressing GRK2 cDNA or the control empty vector and a cell line pair of PAXF1657 GRK2 knockout clonal cells versus non-targeting control clonal cells.
(§2) Proliferation Assay: Cellular anti-proliferative activity of compounds was assessed by using the pancreatic cancer cell line, PAXF1657, stably overexpressing GRK2 cDNA or the control empty vector, as well as the parental urinary bladder cancer cell line, 5637. In addition, we also took advantage of GRK2 knockout cell lines that were generated via CRISPR. Cell lines were seeded into tissue culture treated, white-walled, 96-well plates at a density of 500 cells/well in RPMI1640 media supplemented with 10% H.I. FBS and penicillin/streptomycin. Plates were incubated overnight at 37° C., 5% CO2 to allow cells to adhere to the wells. GRK2 inhibitors were added to the cells using a 10-point dilution series with a final concentration ranging from 30 μM-0.0002 μM in 0.3% DMSO. At the time of compound addition, a set of plates, that were not treated with compounds, were collected and cell viability was measured using CellTiter-Glo (Promega). CellTiter-Glo reagent was added to the designed plates and luminescence was measuring using a Biotek Synergy plate reader. The compound treated cells were incubated for 3 days at 37° C., 5% CO2. The media was then aspirated from each well and replaced with fresh media containing GRK2 inhibitors. The compound treated cells were then incubated for an additional 4 days at 37° C., 5% CO2. Cell viability was assessed and at end of the 7-day compound treatment by CellTiterGlo.

The test system of another assay is PAXF1657 KO Clone #4. In words: 7-day cellular proliferation assay (CellTiter-Glo), PAXF1657 KO Clone #4. As to the method:
as §1, §2

The mark [1] stands for this setting: read-out: Degradation Assay - 3 point: Degradation (%).
[2] abbreviates: Conc 1 uM, read-out: Degradation Assay - 3 point: Degradation (%).
Setting [3] is: Conc 3 uM, read-out: Degradation Assay - 3 point: Degradation (%).
Where [4] appears, read: proliferation, read-out: GeoMean IC50 (UM) PAXF1657 EV.
Where [5] appears, read: proliferation, read-out: GeoMean IC50 (uM) PAXF1657 KO Clone #4.
The mark [6] stands for this setting: 168 h, 7-day, read-out: 7-day proliferation assay: IC50 GeoMean (uM) [Cell Line: PAXF1657 EV].
Setting [7] is: 1 uM, PAXF1657 EV, 24 hrs, read-out: % GRK2 degradation at 1 uM in PAXF1657 EV (24 hrs).
[8] abbreviates: 3 uM, PAXF1657 EV, 24 hrs, read-out: % GRK2 degradation at 3 uM in PAXF1657 EV (24 hrs).
Where [9] appears, read: 168 h, 7-day, read-out: 7-day proliferation assay: IC50 GeoMean (uM) [Cell Line: PAXF1657 KO Clone #4].

Each structure is given as a SMILES string. Read-outs that look alike come from different tables or passages of the source. Where only a bound is given, the exact number is not on record here.

Consider `C[C@H](NC(=O)c1cccc(NCc2nnc(-c3ccncn3)n2C)c1)c1cccc(OCCCCCCOCCOCC(=O)Nc2cccc3c2CN(C2CCC(=O)NC2=O)C3=O)c1` (stereo partly drawn) [Compound D193, N-((1S)-1-(3-((6-(2-(2-((2-(2,6-dioxopiperidin-3-yl)-1-oxoisoindolin-4-yl)amino)-2-oxoethoxy)ethoxy)hexyl)oxy)phenyl)ethyl)-3-(((4-methyl-5-(pyrimidin-4-yl)-4H-1,2,4-triazol-3-yl)methyl)amino)benzamide], for which the inhibition at 0.3 µM at GRK2 (setting [1]) came to 19.3%. Further, the inhibition at 1 µM at GRK2 (setting [2]) is 16.7%. Moreover, the inhibition at 3 µM on GRK2 (setting [3]) turned out to be 29.6%.

As to `C[C@@H](NC(=O)c1cccc(NCc2nnc(-c3ccncn3)n2C)c1)c1cccc(OCCCCCn2cc(CCCC(=O)Nc3cccc4c3CN(C3CCC(=O)NC3=O)C4=O)nn2)c1` (some centres unmarked) [Compound D157], the values for the IC50 with PAXF1657 EV (setting [4]) and with PAXF1657 KO Clone #4 (setting [5]) were 7.39 µM and over 30 µM, respectively. Further, the inhibition at 0.3 µM on GRK2 (setting [1]) turned out to be 13.5%. Besides, the inhibition at 1 µM on GRK2 (setting [2]) is 11.1%. In addition, the inhibition at 3 µM at GRK2 (setting [3]) was 42.3%.

Regarding `Cc1ncsc1-c1ccc(CNC(=O)[C@@H]2C[C@@H](O)CN2C(=O)[C@@H](NC(=O)CCOCCOCCOCCNC(=O)CCCCOc2cccc(CNC(=O)c3cccc(NCc4nnc(-c5ccncn5)n4C)c3)c2)C(C)(C)C)cc1` [Compound D115], the IC50 was over 10 µM with PAXF1657 EV (setting [6]) and 1 to 10 µM in the assay on PAXF1657 KO Clone #4 (setting [9]). The inhibition at 1 µM on GRK2 (setting [7]) was -14%. Moreover, the inhibition at 3 µM on GRK2 (setting [8]) was -2%.

Take `Cn1c(CNc2cccc(C(=O)NCc3cccc(OCCCCCC(=O)NCCOCCOCCOCCC(=O)Nc4cccc5c4CN(C4CCC(=O)NC4=O)C5=O)c3)c2)nnc1-c1ccncn1` (centres unmarked) [Compound D113]: the IC50 with PAXF1657 EV (setting [6]) and with PAXF1657 KO Clone #4 (setting [9]) was over 10 µM throughout. In addition, at GRK2 (setting [7]), the inhibition at 1 µM is -6%. Moreover, on GRK2 (setting [8]), the inhibition at 3 µM is 0%.

For `Cn1c(CNc2cccc(C(=O)NCc3cccc(OCCCCCCC(=O)NCCOCCOCCOCCC(=O)Nc4cccc5c4CN(C4CCC(=O)NC4=O)C5=O)c3)c2)nnc1-c1ccncn1` (centres unmarked) [Compound D114], the IC50 in the assay on PAXF1657 EV (setting [6]) and with PAXF1657 KO Clone #4 (setting [9]) was over 10 µM each time. Further, on GRK2 (setting [7]), the inhibition at 1 µM was found to be 32%. The inhibition at 3 µM on GRK2 (setting [8]) was 15%.

Take `Cn1c(CNc2cccc(C(=O)NCc3cccc(OCCCCCCOCCOCCOCCC(=O)Nc4cccc5c4CN(C4CCC(=O)NC4=O)C5=O)c3)c2)nnc1-c1ccncn1` (centres unmarked) [Compound D195, N-(3-(6-(2-(2-(3-(2-(2,6-dioxopiperidin-3-yl)-1-oxoisoindolin-4-ylamino)-3-oxopropoxy)ethoxy)ethoxy)hexyloxy)benzyl)-3-((4-methyl-5-(pyrimidin-4-yl)-4H-1,2,4-triazol-3-yl)methylamino)benzamide]: the results for the IC50 in the assay with PAXF1657 EV (setting [4]) and in the assay with PAXF1657 KO Clone #4 (setting [5]) were 1.09 µM and over 30 µM, respectively. Moreover, the inhibition at 0.3 µM at GRK2 (setting [1]) was -46.4%. Moreover, the inhibition at 1 µM at GRK2 (setting [2]) is 9.8%. Besides, at GRK2 (setting [3]), the inhibition at 3 µM worked out at 32.1%.

Regarding `Cc1ncsc1-c1ccc(CNC(=O)[C@@H]2C[C@@H](O)CN2C(=O)C(NC(=O)CCCCCOCCOCCOCCCCCCOc2ccc3c(c2)[C@H](NC(=O)c2cccc(NCc4nnc(-c5ccncn5)n4C)c2)CCO3)C(C)(C)C)cc1` (stereo partly drawn) [Compound D186, (2S,4R)-1-((R)-2-tert-butyl-22-((R)-4-(3-((4-methyl-5-(pyrimidin-4-yl)-4H-1,2,4-triazol-3-yl)methylamino)benzamido)chroman-6-yloxy)-4-oxo-10,13,16-trioxa-3-azadocosane)-4-hydroxy-N-(4-(4-methylthiazol-5-yl)benzyl)pyrrolidine-2-carboxamide], the values for the IC50 with PAXF1657 EV (setting [4]) and in the assay on PAXF1657 KO Clone #4 (setting [5]) were 0.56 µM and 5.09 µM, respectively. Moreover, the inhibition at 0.3 µM at GRK2 (setting [1]) came out at 20%. Besides, the inhibition at 1 µM on GRK2 (setting [2]) is 36.3%. Moreover, at GRK2 (setting [3]), the inhibition at 3 µM was -32.6%.

Regarding `Cn1c(CNc2cccc(C(=O)N[C@H]3CCOc4ccc(OCCCCCOCCCOCC(=O)Nc5cccc6c5CN(C5CCC(=O)NC5=O)C6=O)cc43)c2)nnc1-c1ccncn1` (stereo partly drawn) [Compound D155, N-((4S)-6-(5-(3-(2-(2-(2,6-dioxopiperidin-3-yl)-1-oxoisoindolin-4-ylamino)-2-oxoethoxy)propoxy)pentyloxy)chroman-4-yl)-3-((4-methyl-5-(pyrimidin-4-yl)-4H-1,2,4-triazol-3-yl)methylamino)benzamide], the IC50 in the assay on PAXF1657 EV (setting [4]) and in the assay on PAXF1657 KO Clone #4 (setting [5]) was over 30 µM in each case. In addition, the inhibition at 0.3 µM on GRK2 (setting [1]) is 61.9%. On GRK2 (setting [2]), the inhibition at 1 µM came to 58.1%. For the same compound, at GRK2 (setting [3]), the inhibition at 3 µM is -21.9%.

`C[C@@H](NC(=O)c1cccc(NCc2nnc(-c3ccncn3)n2C)c1)c1cccc(OCCCCCOCCCOCC(=O)Nc2cccc3c2CN(C2CCC(=O)N(C)C2=O)C3=O)c1` (stereo partly drawn) [Compound D194, N-((1R)-1-(3-((5-(3-(2-((2-(1-methyl-2,6-dioxopiperidin-3-yl)-1-oxoisoindolin-4-yl)amino)-2-oxoethoxy)propoxy)pentyl)oxy)phenyl)ethyl)-3-(((4-methyl-5-(pyrimidin-4-yl)-4H-1,2,4-triazol-3-yl)methyl)amino)benzamide]: the inhibition at 0.3 µM at GRK2 (setting [1]) is 25%. Moreover, on GRK2 (setting [2]), the inhibition at 1 µM came out at 15%. Further, the inhibition at 3 µM at GRK2 (setting [3]) turned out to be 0%.

On to `Cn1c(CNc2cccc(C(=O)N[C@@H]3CCOc4ccc(OCCCCCOCCCOCC(=O)Nc5cccc6c5CN(C5CCC(=O)NC5=O)C6=O)cc43)c2)nnc1-c1ccncn1` (stereo partly drawn) [Compound D192, N-((4R)-6-(5-(3-(2-(2-(2,6-dioxopiperidin-3-yl)-1-oxoisoindolin-4-ylamino)-2-oxoethoxy)propoxy)pentyloxy)chroman-4-yl)-3-((4-methyl-5-(pyrimidin-4-yl)-4H-1,2,4-triazol-3-yl)methylamino)benzamide], for which, at GRK2 (setting [1]), the inhibition at 0.3 µM was determined as 13.5%. For the same compound, the inhibition at 1 µM at GRK2 (setting [2]) was 37.4%. Besides, the inhibition at 3 µM at GRK2 (setting [3]) is 56.2%.

With `Cc1ncsc1-c1ccc(CNC(=O)[C@@H]2C[C@@H](O)CN2C(=O)[C@@H](NC(=O)COCCCOCCCCCOc2cccc([C@H](C)NC(=O)c3cccc(NCc4nnc(-c5ccncn5)n4C)c3)c2)C(C)(C)C)cc1` [Compound D184, (2S,4R)-1-((S)-3,3-dimethyl-2-(2-(3-((5-(3-((S)-1-(3-(((4-methyl-5-(pyrimidin-4-yl)-4H-1,2,4-triazol-3-yl)methyl)amino)benzamido)ethyl)phenoxy)pentyl)oxy)propoxy)acetamido)butanoyl)-4-hydroxy-N-(4-(4-methylthiazol-5-yl)benzyl)pyrrolidine-2-carboxamide], the inhibition at 0.3 µM at GRK2 (setting [1]) was found to be 1.96%. The inhibition at 1 µM on GRK2 (setting [2]) was determined as 17.7%. At GRK2 (setting [3]), the inhibition at 3 µM was determined as 20.6%.
